Source: article PMC3919453 (Bioorganic & medicinal chemistry letters, 2013)

Columns and labels:
KOR = KOR (Homo sapiens, UniProt P41145); test: agonist-stimulated [35S]GTPγS binding, KOR; conditions: for EC50 (nM) KOR: [35S]GTPγS binding, CHO-KOR membranes, mean ± SEM; for EC50 (nM) KOR / % stimulation KOR: dns: does not stimulate; for % stimulation KOR: percent maximal stimulation relative to standard agonist U69,593 at 10 µM
DOR = DOR (Rattus norvegicus, UniProt P33533); test: agonist-stimulated [35S]GTPγS binding, DOR; conditions: for EC50 (nM) DOR: [35S]GTPγS binding, C6-DOR membranes, dns: does not stimulate
DOR, sequence (P33533 whole entry): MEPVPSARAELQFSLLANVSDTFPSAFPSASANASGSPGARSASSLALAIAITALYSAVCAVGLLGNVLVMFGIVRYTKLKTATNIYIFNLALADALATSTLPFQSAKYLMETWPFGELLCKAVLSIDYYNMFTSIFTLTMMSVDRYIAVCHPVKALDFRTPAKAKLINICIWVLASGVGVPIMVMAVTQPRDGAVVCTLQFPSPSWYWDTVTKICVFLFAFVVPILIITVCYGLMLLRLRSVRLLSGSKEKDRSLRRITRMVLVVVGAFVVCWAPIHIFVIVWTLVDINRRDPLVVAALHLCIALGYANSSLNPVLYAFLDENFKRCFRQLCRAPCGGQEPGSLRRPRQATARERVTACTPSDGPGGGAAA

MOR = MOR (Rattus norvegicus, UniProt P33535); test: agonist-stimulated [35S]GTPγS binding, MOR; conditions: for efficacy at MOR (in words): [35S]GTPγS assay; for EC50 (nM) MOR: [35S]GTPγS binding, C6-MOR membranes, mean ± SEM, dns: does not stimulate
MOR, sequence (P33535 whole entry): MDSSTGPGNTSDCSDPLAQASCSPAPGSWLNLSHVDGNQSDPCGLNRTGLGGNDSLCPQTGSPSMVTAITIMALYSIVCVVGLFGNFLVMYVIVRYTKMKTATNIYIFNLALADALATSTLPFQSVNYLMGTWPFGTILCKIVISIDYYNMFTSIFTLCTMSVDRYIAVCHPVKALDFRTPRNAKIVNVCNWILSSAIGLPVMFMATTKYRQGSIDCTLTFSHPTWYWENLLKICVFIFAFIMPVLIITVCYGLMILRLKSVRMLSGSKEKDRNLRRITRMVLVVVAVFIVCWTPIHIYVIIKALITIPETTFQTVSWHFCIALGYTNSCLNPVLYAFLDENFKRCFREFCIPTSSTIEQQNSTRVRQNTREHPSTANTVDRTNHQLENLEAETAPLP

KOR, sequence (P41145 whole entry): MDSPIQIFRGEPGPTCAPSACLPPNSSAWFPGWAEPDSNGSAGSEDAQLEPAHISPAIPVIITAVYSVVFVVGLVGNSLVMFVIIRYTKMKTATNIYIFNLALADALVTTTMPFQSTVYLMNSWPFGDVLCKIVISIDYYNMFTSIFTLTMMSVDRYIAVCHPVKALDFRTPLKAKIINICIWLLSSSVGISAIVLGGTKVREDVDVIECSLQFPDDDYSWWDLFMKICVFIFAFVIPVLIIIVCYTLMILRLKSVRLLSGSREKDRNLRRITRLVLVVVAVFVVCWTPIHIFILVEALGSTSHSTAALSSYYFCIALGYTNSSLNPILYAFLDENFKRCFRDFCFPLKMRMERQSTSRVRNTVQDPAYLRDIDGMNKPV

Row | Compound | EC50 (nM) KOR (KOR) | % stimulation KOR (KOR) | EC50 (nM) DOR (DOR) | efficacy at MOR (in words) (MOR) | EC50 (nM) MOR (MOR) | efficacy at KOR (in words) (KOR; [35S]GTPγS assay) | efficacy at DOR (in words) (DOR; [35S]GTPγS assay)
1 | Cc1cc(O)cc(C)c1C[C@H](N)C(=O)N1CCC(Cc2ccccc2)c2ccccc21 (some centres unmarked) [Compound 2] | dns | dns | dns | no notable efficacy | dns |  | 
2 | Cc1cc(O)cc(C)c1C[C@H](N)C(=O)N1CCC(Cc2ccccc2)CC1 [Compound 3] | dns | dns | dns | lacked any efficacy | dns |  | 
3 | Cc1cc(O)cc(C)c1C[C@H](N)C(=O)N1CCC(CCCc2ccccc2)CC1 [Compound 4] | dns | dns | dns | weak partial agonist |  |  | 
4 | Cc1cc(O)cc(C)c1C[C@H](N)C(=O)N1CCN(CCCc2ccccc2)CC1 [Compound 5] | dns | dns | dns |  |  |  | 
5 | Cc1cc(O)cc(C)c1C[C@H](N)C(=O)N1CCN(CCCc2cccc3ccccc23)CC1 [Compound 6] |  | dns |  | partial agonist profile |  |  | 
6 | Cc1cc(O)cc(C)c1C[C@H](N)C(=O)N1CCN(C/C=C/c2cccc3ccccc23)CC1 [Compound 7] |  | dns |  | no efficacy |  | no efficacy | no efficacy
7 | Cc1cc(O)cc(C)c1C[C@H](N)C(=O)N1CCN(CCC(c2ccccc2)c2ccccc2)CC1 [Compound 8] | dns | dns | dns |  | dns |  | 
8 | Cc1cc(O)cc(C)c1C[C@H](N)C(=O)N1CCN(CCCCc2ccccc2)CC1 [Compound 9] | dns |  | dns |  |  |  | 
9 | Cc1cc(O)cc(C)c1C[C@H](N)C(=O)N1CCN(C/C=C/Cc2ccccc2)CC1 [Compound 10] |  |  | dns |  |  |  | 
10 | Cc1cc(O)cc(C)c1C[C@H](N)C(=O)N1CCN(C/C=C\Cc2ccccc2)CC1 [Compound 11] |  |  | dns |  |  |  | 
11 | Cc1cc(O)cc(C)c1C[C@H](N)C(=O)N1CCN(CCCCCc2ccccc2)CC1 [Compound 12] |  |  | dns |  |  |  | 
